Values of other authors, collected in patent US20190022221A1 (priority 2015, published 2019).

Columns and labels:
[1] = in vivo
[2] = system: Venezuelan equine encephalitis virus (VEEV)
[3] = system: Zaire Ebola virus (ZEBOV)
[4] = system: Acinetobacter baumannii; settings: 1.1-millimeter-thick soft agar layer, light 100 milliWatts per square centimeter

Oc1cccc(-c2c3nc(c(-c4cccc(O)c4)c4ccc([nH]4)c(-c4cccc(O)c4)c4nc(c(-c5cccc(O)c5)c5ccc2[nH]5)CC4)C=C3)c1 [Foscan, Tetra (m-hydroxyphenyl) chlorin]
duration of skin photosensitivity [1]: approximately 2 weeks

[N-]=[N+]=Nc1cccc2c(I)cccc12 [INA, 1,5-iodonaphthyl azide]
inactivation of virulent strain of VEEV [2]: efficiently inactivate | infectivity of ZEBOV after INA treatment [3]: completely noninfectious

CC(=O)[O-].CC(=O)[O-].CCc1c(CC)c2cc3nc(cnc4cc(OCCOCCOCCOC)c(OCCOCCOCCOC)cc4ncc4nc(cc1[n-]2)C(CCCO)=C4C)C(C)=C3CCCO.O.[Lu+3] [Lutetium texaphryin, Motexafin lutetium]
duration of skin photosensitivity [1]: 24 to 48 h

[Mn(PaPy3)(NO)](ClO4)
clearance of bacteria from treated areas of the plates [4]: effectively cleared the bacteria
